US20230286969A1, “AROMATIC SPIRO RING AMIDE DERIVATIVES FOR THE TREATMENT AND PROPHYLAXIS OF HEPATITIS B VIRUS INFECTION” (Hoffmann-La Roche Inc., priority 2020, published 2023)

Experiments:
Type in all cases: cell-based
[1] = PHH natural infection assay, cytotoxicity (Cell Counting Kit-8); conditions: human, HBV-infected primary human hepatocytes, CCK8, end of treatment
Method: (§1) Detailed procedures regarding primary human hepatocyte (PHH) HBV natural infection assay are described as below. One tube of frozen PHH (10 million cells) is thawed in 37° C. water bath and then transferred to 20 mL of PHH thawing medium (Sigma, InVitroGRO HT Medium, Cat. S03319) with gently mixing. The cells were then centrifuged at […] for 5 min, the supernatant was discarded and the tube was refilled with 25 mL of PHH plating medium (Sigma, InVitroGRO CP Medium, Cat. S03317). The tube was shaken very gently to re-suspend all cells, and then 50 μl of cells were transferred to each well 384-well collagen I coated plate with appropriate liquid handling equipment, e.g. Integra VIAFLO384 or Agilent Bravo. The cells were then cultured for 24 hours in a cell incubator. For HBV infection, after PHH attachment on the culture plate, the plating medium was removed and replenished with PHH culture medium containing HBV virus. The PHH culture medium was prepared with Dulbecco's Modified Eagle Medium (DMEM)/F12 (1:1 in volume ratio) containing 10% fetal bovine serum (Gibco, Cat. 10099141), 5 ng/mL human epidermal growth factor (Gibco, Cat.PHG0311L), 20 ng/mL dexamethasone (Sigma, Cat.D4902-100 mg), 250 ng/mL human recombinant insulin (Gibco, Cat.41400045) and 100 U/mL penicillin. HBV virus at 200 genome equivalent (GE) per cell with 4% PEG8000 (Sigma, Cat.P1458) containing culture medium were added to the PHH culture medium for infection. The cells were then cultured for 24 hours in cell incubator. Then the cell culture supernatant was removed. The HBV-infected PHH were cultured with sandwich culture method with PHH culture medium containing 1% DMSO and 0.25 mg/mL matrix gel for 72 hours. The supernatant was then refreshed with PHH culture medium containing different concentrations of testing compounds for two times with 72-hour interval. At the end of treatment, the supernatant was collected for viral markers measurements, including HBsAg, HBeAg, HBV DNA and cytotoxicity. HBsAg and HBeAg were detected using alphalisa method using their specific antibodies. For HBV DNA detection, HBV DNA Quantitative Fluorescence Diagnostic Kit (Sansure Biotech Inc.) was used following the manufacture's protocol. Cytotoxicity was determined using Cell Counting Kit-8 (CCK8, Dojindo Molecular Technologies, Inc.).

HBsAg = assay: PHH HBV natural infection assay, HBsAg (alphalisa); conditions: Hepatitis B virus, Hepatocyte, 72 h, read-out: HBsAg IC50, HBV-infected primary human hepatocytes, supernatant, compound medium refreshed two times with 72-hour interval
Method: as §1
(§2) The compounds of the present invention were tested for their capacity to inhibit HBsAg and HBeAg as described herein.

HBeAg = assay: PHH HBV natural infection assay, HBeAg (alphalisa); conditions: Hepatitis B virus, Hepatocyte, 72 h, read-out: HbeAg IC50, HBV-infected primary human hepatocytes, supernatant, compound medium refreshed two times with 72-hour interval
Method: as §1, §2

SMILES | CC50 at 144 h [1] | IC50 (HBsAg) | IC50 (HBeAg)
O=C(NC1CC2(C1)CC(c1nc3cc(Cl)ccc3o1)C2)c1ccc(S(=O)(=O)CC2COC2)o1 (stereo not drawn) [Example 24, N-[6-(5-chloro-1,3-benzoxazol-2-yl)spiro[3.3]heptan-2-yl]-5-(oxetan-3-ylmethylsulfonyl)furan-2-carboxamide] | 95.3 µM | 2.44 µM | 2.33 µM
CN1CC(CS(=O)(=O)c2ccc(C(=O)NC3CC4(C3)CC(c3nc5cc(Cl)ccc5o3)C4)o2)C1 (stereo not drawn) [Example 25, N-[6-(5-chloro-1,3-benzoxazol-2-yl)spiro[3.3]heptan-2-yl]-5-[(1-methylazetidin-3-yl)methylsulfonyl]furan-2-carboxamide] | > 10 µM | 4.19 µM | 3.73 µM
O=C(NC1CC2(C1)CC(c1nc3cc(Cl)ccc3o1)C2)c1ccc(S(=O)(=O)CC2CN(C(=O)OCc3ccccc3)C2)o1 (stereo not drawn) [Example 26, benzyl 3-[[5-[[6-(5-chloro-1,3-benzoxazol-2-yl)spiro[3.3]heptan-2-yl]carbamoyl]-2-furyl]sulfonylmethyl]azetidine-1-carboxylate] | > 100 µM | 0.365 µM | 0.329 µM
O=C(NC1CC2(C1)CC(c1nc3cc(Cl)ccc3o1)C2)c1ccc(S(=O)(=O)CC2CC(F)(F)C2)o1 (stereo not drawn) [Example 27, N-[6-(5-chloro-1,3-benzoxazol-2-yl)spiro[3.3]heptan-2-yl]-5-[(3,3-difluorocyclobutyl)methylsulfonyl]furan-2-carboxamide] | > 100 µM | 0.152 µM | 0.116 µM
COCCS(=O)(=O)c1ccc(C(=O)NC2CC3(C2)CC(c2nc4cc(Cl)ccc4o2)C3)o1 (stereo not drawn) [Example 28, N-[6-(5-chloro-1,3-benzoxazol-2-yl)spiro[3.3]heptan-2-yl]-5-(2-methoxyethylsulfonyl)furan-2-carboxamide] | 94.2 µM | 0.758 µM | 0.509 µM
NS(=O)(=O)c1ccc(C(=O)NC2CC3(C2)CC(c2nc4cc(Cl)ccc4o2)C3)o1 (stereo not drawn) [Example 29, N-[6-(5-chloro-1,3-benzoxazol-2-yl)spiro[3.3]heptan-2-yl]-5-sulfamoyl-furan-2-carboxamide] | 94.2 µM | 0.534 µM | 0.509 µM
CS(=O)(=O)Cc1ccc(C(=O)NC2CC3(C2)CC(c2nc4cc(Cl)ccc4o2)C3)o1 (stereo not drawn) [Example 30, N-[6-(5-chloro-1,3-benzoxazol-2-yl)spiro[3.3]heptan-2-yl]-5-(methylsulfonylmethyl)furan-2-carboxamide] | > 100 µM | 3.97 µM | 2.17 µM
O=C(NC1CC2(C1)CC(c1nc3cc(Cl)ccc3o1)C2)c1ccc(CS(=O)(=O)C2CC2)o1 (stereo not drawn) [Example 31, N-[6-(5-chloro-1,3-benzoxazol-2-yl)spiro[3.3]heptan-2-yl]-5-(cyclopropylsulfonylmethyl)furan-2-carboxamide] | > 100 µM | 7.56 µM | 6.98 µM
CS(=O)(=O)CCc1ccc(C(=O)NC2CC3(C2)CC(c2nc4cc(Cl)ccc4o2)C3)o1 (stereo not drawn) [Example 32, N-[6-(5-chloro-1,3-benzoxazol-2-yl)spiro[3.3]heptan-2-yl]-5-(2-methylsulfonylethyl)furan-2-carboxamide] | > 100 µM | 4.94 µM | 3.15 µM
NS(=O)(=O)Cc1ccc(C(=O)NC2CC3(C2)CC(c2nc4cc(Cl)ccc4o2)C3)o1 (stereo not drawn) [Example 33, N-[6-(5-chloro-1,3-benzoxazol-2-yl)spiro[3.3]heptan-2-yl]-5-(sulfamoylmethyl)furan-2-carboxamide] | > 100 µM | 1.41 µM | 1.39 µM
NS(=O)(=O)CCc1ccc(C(=O)NC2CC3(C2)CC(c2nc4cc(Cl)ccc4o2)C3)o1 (stereo not drawn) [Example 34, N-[6-(5-chloro-1,3-benzoxazol-2-yl)spiro[3.3]heptan-2-yl]-5-(2-sulfamoylethyl)furan-2-carboxamide] | > 100 µM | 8.78 µM | 5.84 µM
NS(=O)(=O)NCc1ccc(C(=O)NC2CC3(C2)CC(c2nc4cc(Cl)ccc4o2)C3)o1 (stereo not drawn) [Example 35, N-[6-(5-chloro-1,3-benzoxazol-2-yl)spiro[3.3]heptan-2-yl]-5-[(sulfamoylamino)methyl]furan-2-carboxamide] | 98.3 µM | 7.81 µM | 6.53 µM
CCS(=O)(=O)c1oc(C(=O)NC2CC3(C2)CC(c2nc4cc(Cl)ccc4o2)C3)cc1Br (stereo not drawn) [Example 36, 4-bromo-N-[6-(5-chloro-1,3-benzoxazol-2-yl)spiro[3.3]heptan-2-yl]-5-ethylsulfonyl-furan-2-carboxamide] | > 100 µM | 0.885 µM | 0.815 µM
CCS(=O)(=O)c1cc(C)c(C(=O)NC2CC3(C2)CC(c2nc4cc(Cl)ccc4o2)C3)o1 (stereo not drawn) [Example 37, N-[6-(5-chloro-1,3-benzoxazol-2-yl)spiro[3.3]heptan-2-yl]-5-ethylsulfonyl-3-methyl-furan-2-carboxamide] | > 100 µM | 9.38 µM | 5.72 µM
CC(C)(C)[S+]([O-])c1ccc(C(=O)NC2CC3(C2)CC(c2nc4cc(Cl)ccc4o2)C3)o1 (stereo not drawn) [Example 38, 5-tert-butylsulfinyl-N-[6-(5-chloro-1,3-benzoxazol-2-yl)spiro[3.3]heptan-2-yl]furan-2-carboxamide] | 96.3 µM | 0.526 µM | 0.317 µM
CC(C)(C)S(=O)(=O)c1ccc(C(=O)NC2CC3(C2)CC(c2nc4cc(Cl)ccc4o2)C3)o1 (stereo not drawn) [Example 39, 5-tert-butylsulfonyl-N-[6-(5-chloro-1,3-benzoxazol-2-yl)spiro[3.3]heptan-2-yl]furan-2-carboxamide] | > 10 µM | 0.96 µM | 0.603 µM
O=C(NC1CC2(C1)CC(c1nc3cc(Cl)ccc3o1)C2)c1ccc([S+]([O-])C2CC2)o1 (stereo not drawn) [Example 40, N-[6-(5-chloro-1,3-benzoxazol-2-yl)spiro[3.3]heptan-2-yl]-5-cyclopropylsulfinyl-furan-2-carboxamide] | > 10 µM | 0.084 µM | 0.067 µM
O=C(NC1CC2(C1)CC(c1nc3cc(Cl)ccc3o1)C2)c1ccc(SC(F)(F)F)o1 (stereo not drawn) [Example 41, N-[6-(5-chloro-1,3-benzoxazol-2-yl)spiro[3.3]heptan-2-yl]-5-(trifluoromethylsulfanyl)furan-2-carboxamide] | > 100 µM | 8.47 µM | 6.62 µM
O=C(NC1CC2(C1)CC(c1nc3cc(Cl)ccc3o1)C2)c1ccc([S+]([O-])C(F)(F)F)o1 (stereo not drawn) [Example 42, N-[6-(5-chloro-1,3-benzoxazol-2-yl)spiro[3.3]heptan-2-yl]-5-(trifluoromethylsulfinyl)furan-2-carboxamide] | 96.2 µM | 1.52 µM | 1.41 µM
O=C(NC1CC2(C1)CC(c1nc3cc(Cl)ccc3o1)C2)c1ccc(S(=O)(=O)C(F)(F)F)o1 (stereo not drawn) [Example 43, N-[6-(5-chloro-1,3-benzoxazol-2-yl)spiro[3.3]heptan-2-yl]-5-(trifluoromethylsulfonyl)furan-2-carboxamide] | > 100 µM | 1.14 µM | 0.839 µM
CC(C)S(=O)(=O)Cc1ccc(C(=O)NC2CC3(C2)CC(c2nc4cc(Cl)ccc4o2)C3)o1 (stereo not drawn) [Example 44, N-[6-(5-chloro-1,3-benzoxazol-2-yl)spiro[3.3]heptan-2-yl]-5-(isopropylsulfonylmethyl)furan-2-carboxamide] | 95.8 µM | 1.8 µM | 1.55 µM
CS(=O)(=O)c1ccc(C(=O)NC2CC3(C2)CC(c2nc4cc(Cl)ccc4o2)C3)s1 (stereo not drawn) [Example 45, N-[6-(5-chloro-1,3-benzoxazol-2-yl)spiro[3.3]heptan-2-yl]-5-methylsulfonyl-thiophene-2-carboxamide] | > 100 µM | 2.21 µM | 1.9 µM
O=C(NC1CC2(C1)CC(c1nc3ccc(Cl)cc3o1)C2)c1ccc(C(F)(F)F)o1 (stereo not drawn) [Example 46, N-[6-(6-chloro-1,3-benzoxazol-2-yl)spiro[3.3]heptan-2-yl]-5-(trifluoromethyl)furan-2-carboxamide] | 89.8 µM | 5.83 µM | 2.81 µM
